Source: PMC6815239 (Nature chemistry, 2019)
Each block holds one molecule with its values, some of them ahead of it.

Key:
[1] = target: MalA (Malbranchea aurantiaca, UniProt L0E155); assay: LC/MS halogenation assay; format: biochemical; settings: full pathway reconstitution, NaCl
[2] = target: MalG R (Malbranchea aurantiaca, UniProt L0E2Z1); assay: LC/MS product formation; format: biochemical; settings: substrate analog 23 loaded on MalG T2
[3] = target: T1, PhqE (Penicillium fellutanum, UniProt L0E2Z4); assay: X-ray crystal structure, […] Å; format: binding; settings: complex with (+)-premalbrancheamide
[4] = target: T1, PhqE; assay: X-ray crystal structure; format: binding; settings: crystals grown with NAD+
[5] = target: T2, MalB (Malbranchea aurantiaca, UniProt L0E2Y5); assay: prenyltransferase assay, LC/MS; format: biochemical; settings: substrate-loaded MalG domains, NADPH
T2 sequence (L0E2Y5 1-369): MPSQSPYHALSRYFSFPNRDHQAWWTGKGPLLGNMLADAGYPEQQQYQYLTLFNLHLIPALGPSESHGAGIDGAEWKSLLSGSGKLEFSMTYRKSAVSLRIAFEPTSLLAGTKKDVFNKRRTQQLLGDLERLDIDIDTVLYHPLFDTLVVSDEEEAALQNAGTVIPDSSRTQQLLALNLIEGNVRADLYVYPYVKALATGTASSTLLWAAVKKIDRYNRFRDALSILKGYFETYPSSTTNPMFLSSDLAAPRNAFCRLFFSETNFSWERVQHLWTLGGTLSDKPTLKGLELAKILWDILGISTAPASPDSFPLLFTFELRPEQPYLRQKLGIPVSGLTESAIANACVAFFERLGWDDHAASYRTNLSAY

[6] = target: T3, MalE (Malbranchea aurantiaca, UniProt L0E2P7); assay: prenyltransferase assay, LC/MS; format: biochemical; settings: substrate-loaded MalG domains, NADPH
T3 sequence (L0E2P7 1-438): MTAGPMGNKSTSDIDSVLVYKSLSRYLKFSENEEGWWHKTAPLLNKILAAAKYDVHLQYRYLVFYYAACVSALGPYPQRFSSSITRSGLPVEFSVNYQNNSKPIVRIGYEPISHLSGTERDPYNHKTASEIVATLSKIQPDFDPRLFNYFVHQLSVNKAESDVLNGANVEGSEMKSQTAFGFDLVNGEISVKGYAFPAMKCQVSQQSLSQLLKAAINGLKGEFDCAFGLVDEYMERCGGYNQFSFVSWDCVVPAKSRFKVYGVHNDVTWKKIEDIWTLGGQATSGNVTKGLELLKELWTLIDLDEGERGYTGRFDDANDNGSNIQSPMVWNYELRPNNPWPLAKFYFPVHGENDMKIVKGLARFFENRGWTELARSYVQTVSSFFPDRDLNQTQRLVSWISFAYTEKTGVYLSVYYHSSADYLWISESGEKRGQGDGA

T1 sequence (L0E2Z4 whole entry): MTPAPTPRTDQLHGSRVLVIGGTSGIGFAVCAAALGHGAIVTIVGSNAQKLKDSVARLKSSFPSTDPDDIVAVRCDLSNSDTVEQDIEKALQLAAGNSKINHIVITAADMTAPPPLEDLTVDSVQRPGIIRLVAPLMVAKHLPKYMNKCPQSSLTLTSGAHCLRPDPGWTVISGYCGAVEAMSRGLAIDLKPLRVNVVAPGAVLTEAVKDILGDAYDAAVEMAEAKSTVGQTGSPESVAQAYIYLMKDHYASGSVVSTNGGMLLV
Chain of MalG R (L0E2Z1 1950-2345): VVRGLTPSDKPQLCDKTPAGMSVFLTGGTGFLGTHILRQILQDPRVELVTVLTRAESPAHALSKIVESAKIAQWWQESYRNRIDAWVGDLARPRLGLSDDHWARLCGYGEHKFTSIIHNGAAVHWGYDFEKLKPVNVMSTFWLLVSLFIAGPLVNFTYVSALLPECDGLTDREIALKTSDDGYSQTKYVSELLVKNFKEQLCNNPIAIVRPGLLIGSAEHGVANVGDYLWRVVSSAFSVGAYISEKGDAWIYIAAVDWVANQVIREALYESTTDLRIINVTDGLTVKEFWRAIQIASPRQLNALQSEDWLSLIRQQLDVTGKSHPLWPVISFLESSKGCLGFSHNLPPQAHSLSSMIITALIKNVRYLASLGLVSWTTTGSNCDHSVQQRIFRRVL
Chain of MalA (L0E155 whole entry): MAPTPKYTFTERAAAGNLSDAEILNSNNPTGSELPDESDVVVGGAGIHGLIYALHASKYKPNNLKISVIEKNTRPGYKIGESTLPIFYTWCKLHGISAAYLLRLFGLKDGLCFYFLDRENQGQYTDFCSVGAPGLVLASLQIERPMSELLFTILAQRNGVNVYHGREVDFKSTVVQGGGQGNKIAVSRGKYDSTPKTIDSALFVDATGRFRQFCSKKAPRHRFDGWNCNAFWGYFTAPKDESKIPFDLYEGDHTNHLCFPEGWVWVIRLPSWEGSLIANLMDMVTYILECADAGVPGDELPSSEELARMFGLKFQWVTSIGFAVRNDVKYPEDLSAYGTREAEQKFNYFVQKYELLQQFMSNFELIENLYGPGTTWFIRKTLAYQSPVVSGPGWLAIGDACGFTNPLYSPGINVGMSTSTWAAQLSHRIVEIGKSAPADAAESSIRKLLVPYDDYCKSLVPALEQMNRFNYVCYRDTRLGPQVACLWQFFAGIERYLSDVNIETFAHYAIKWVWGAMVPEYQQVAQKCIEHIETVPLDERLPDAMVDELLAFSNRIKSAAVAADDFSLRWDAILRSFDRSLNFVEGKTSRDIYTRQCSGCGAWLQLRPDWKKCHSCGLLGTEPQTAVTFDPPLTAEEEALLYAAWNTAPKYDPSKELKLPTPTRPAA

SMILES: Cc1cc2c(cc1C)N(C[C@H](O)[C@H](O)[C@H](O)COP(=O)(O)OP(=O)(O)OC[C@H]1O[C@@H](n3cnc4c(N)ncnc43)[C@H](O)[C@@H]1O)c1[nH]c(=O)[nH]c(=O)c1N2 [FADH2]
LC/MS halogenation assay [1]: We incubated MalA with its pathway partners (L-Pro and L-Trp MalG, MalE and MalC, NADPH

SMILES: NC(=O)C1=CN([C@@H]2O[C@H](COP(=O)(O)OP(=O)(O)OC[C@H]3O[C@@H](n4cnc5c(N)ncnc54)[C@H](OP(=O)(O)O)[C@@H]3O)[C@@H](O)[C@H]2O)C=CC1 [NADPH]
LC/MS product formation [2]: NADPH was the preferred cofactor in this reaction

SMILES: NC(=O)c1ccc[n+]([C@@H]2O[C@H](COP(=O)(O)OP(=O)(O)OC[C@H]3O[C@@H](n4cnc5c(N)ncnc54)[C@H](OP(=O)(O)O)[C@@H]3O)[C@@H](O)[C@H]2O)c1 [NADP^+]
X-ray crystal structure, 2.4 Å [3]: PhqE crystals grown with NADP^+ showed strong electron density for the cofactor

X-ray crystal structure [4]: while NAD^+ showed weak electron density
SMILES: NC(=O)c1ccc[n+]([C@@H]2O[C@H](COP(=O)(O)OP(=O)(O)OC[C@H]3O[C@@H](n4cnc5c(N)ncnc54)[C@H](O)[C@@H]3O)[C@@H](O)[C@H]2O)c1 [NAD^+]

SMILES: CC(C)=CCOP(=O)(O)OP(=O)(O)O [dimethylallyl pyrophosphate]
prenyltransferase assay, LC/MS [5]: whereas MalB displayed modest activity
prenyltransferase assay, LC/MS [6]: dimethylallyl pyrophosphate (DMAPP), the prenyl donor. MalE readily catalyzed a C2 reverse prenyl transfer
